{"source": "patent EP0994713B1", "about": "“USE OF A 7alpha-METHYL-17alpha-ETHYNYL-ESTRANE DERIVATIVE FOR THE TREATMENT OF ATHEROSCLEROSIS” (Akzo Nobel N.V., priority 1997, dated 1998)", "type_in_all_cases": "in vivo, New Zealand White rabbits", "key": {"[1]": {"test_system": "female ovariectomized rabbits", "experiment": "Overall atherosclerotic lesion formation, cholesterol fed rabbit model", "conditions": "Example 3: Org OD14 0.6 mg orally daily; estradiol decanoate 300 µg s.c. weekly", "protocol": "(§1) The model is considered relevant to the human atherosclerotic process, because the cellular events occurring during the development of the atherosclerotic lesions during the atherogenic diet are similar to those observed in different stages of atherosclerotic processes in coronary arteries.\nIn addition to example 2 an additional experiment was performed with two lower doses of Org OD14 and a higher dose of estradiol decanoate. […] The procedures were identical to those in example 2.\n(§2) Three weeks prior to the start of the experiment the animals were ovariectomized. At the start of the experiment the carotid artery was de-endothelialised using the air-drying technique. The normal rabbit chow was replaced by the atherogenic diet except for the control group which received during the experiment the normal rabbit chow.\nThe treatments (table II) of group 1, 2, 3 and 4 were daily administered orally as a tablet, prepared as in example 1. The doses of Org OD14 per tablet, however, were 0.6 mg and 0.15 mg respectively. Group 5 was on treatment with 17β-estradiol decanoate (300 µg in 1 ml arachis oil injected subcutaneously once a week). Twenty weeks after the start of the experiment was ended in the same manner as described in example 2.\nIn example 3 we tested Org OD14 at two lower doses (0.6 and 0.15 mg orally once daily) and estradiol decanoate at a higher dose (300 µg s.c. once weekly). […]"}, "[2]": {"test_system": "female ovariectomized rabbits", "experiment": "Plasma cholesterol levels, cholesterol fed rabbit model", "conditions": "for Mean plasma cholesterol exposure: cholesterol diet, OVX, 20 weeks", "protocol": "as §1\n(§3) An experiment was performed with 7 groups of sexually mature, virgin female New Zealand White rabbits (Harlan, Zeist, The Netherlands), age 7-9 months and weighing approximately 3 kg (number of […] per group: 13-14). During the acclimatization period the rabbits were fed a diet of standard commercial rabbit chow LKK20 (Hope Farms, Woerden, The Netherlands). Three weeks prior to the start of the experiment the animals were anaesthetized and underwent bilateral ovariectomy (OVX) or were sham operated. After three weeks, at the start of the experiment, the rabbits were randomized over the treatment groups.\nThe animals were randomly allocated into 7 experimental groups using a randomized block design. […] One group was fed the standard rabbit chow (LKK20). Food intake was restricted to 80 grams daily.\n(§4) Groups 1, 2 and 3 were on a daily placebo treatment. Groups 4-5 were treated with 7α-methyl-17α-ethynyl-17β-hydroxy-estra-5(10)-en-3-one (OD-14; tibolone; 6 or 2 mg daily); group 6 with 17β-estradiol (4 mg daily). Group 7 was on treatment with 17β-estradiol decanoate (150 µg in 1 ml arachis oil injected subcutaneously once a week).\n(§5) During the experiment blood samples were drawn out of the central ear artery after sedation with Hypnorm (0.1 ml i.m.) (Janssen Pharmaceutics, Beerse, Belgium) before the daily treatment, at week 4,8,12,16 and 20, to monitor the plasma cholesterol levels and to measure, at week 17, plasma estradiol levels and plasma tibolone levels. Twenty weeks after the start of the experiment animals were anaesthetized by an i.m. injection of Hypnorm (0.5 ml/kg). After blood sampling the rabbits were killed by exsanguination and the aortic arch, uterus and carotid artery removed for further analyses.\nas §2\nGroup 5 was on treatment with 17β-estradiol decanoate (300 µg in 1 ml arachis oil injected subcutaneously once a week)."}, "[3]": {"test_system": "female ovariectomized rabbits", "experiment": "Intimal thickening (advanced lesions) in carotid artery after de-endothelialisation", "conditions": "for Advanced lesions in carotid artery: intimal surface: cholesterol diet, OVX, necropsy at 20 weeks", "protocol": "as §1\nas §3, with “groups. In all animals de-endothelialisation of a segment of the left carotid artery was applied by using the air-drying technique (Fishman, J.A. et al., \"Endothelial regeneration in the rat carotid artery and the significance of endothelial denudation in the pathogenesis of myointimal thickening\", Lab. Invest. 1975, 32, 339-351; and Lafont, A. et al., \"Restenosis and experimental angioplasty: Intimal, medial and adventitial changes associated with constructive remodeling\", Circulation Research, 1995, 76, 996-1002)” for “groups.”\nThe animals were randomly allocated into 7 experimental groups using a randomized block design. The groups were fed an atherogenic diet (commercial rabbit chow (LKK20) enriched with 0.4 grams cholesterol, 3.75 grams coconut oil and 3.75 grams peanut oil per 100 grams). One group was fed the standard rabbit chow (LKK20). Food intake was restricted to 80 grams daily.\nas §4, with “The treatments (Table I) were daily administered orally as a tablet, prepared as in Example 1. Groups 1,” for “Groups 1,”\nas §5, with “analyses. […]” for “analyses.”\nThe left (airdried) carotid artery was dissected and fixed in 2% paraformaldehyde containing 6.8% glucose. The right carotid artery was used as comparison. After fixation the tissue was divided in blocks with a length of 2 mm and embedded in paraffin (Paraplast plus®, Sherwood Medical Co, St. Louis, USA) using an automated tissue processor (Hypercenter XP, Shandon).\nTo measure intimal thickening (using image analysis) a specific staining method and a belonging image analysis application have been developed.\nMeasurements were performed on 2 µm transverse sections which were treated with elastase (Serva Feinbiochemica Gmbh, Heidelberg, Germany) prior to elastin staining with Lawson solution (Boom, Meppel, the Netherlands) and light green (Sigma). Subsequently sections were airdried and mounted in Pertex (Leica Gmbh, Nussloch, Germany).\nFor morphological study both methylene blue/Azur II and hemotoxylin/eosin stained (2 µm) transverse sections were used. Smooth muscle cells and macrophages were detected with respectively α-actin antibodies (Sigma) and anti-macrophage antibodies (RAM11, DAKO, Glostrup, Denmark). […]"}, "[4]": {"conditions": "Example 2, Group 4: 6 mg orally daily"}, "[5]": {"conditions": "Example 2, Group 5: 2 mg orally daily"}, "[6]": {"conditions": "Example 2: Org OD14 2 and 6 mg, E2 4 mg orally daily, E2D 150 µg s.c. weekly"}, "[7]": {"conditions": "Example 3: 0.15 mg orally once daily"}, "[8]": {"conditions": "Example 3: 0.6 mg orally once daily"}}, "data": [{"compound": "C#C[C@]1(O)CC[C@H]2[C@@H]3[C@H](C)CC4=C(CCC(=O)C4)[C@H]3CC[C@@]21C", "note": "[Org OD14, 7α-methyl-17α-ethynyl-17β-hydroxy-estra-5(10)-en-3-one]", "values": [{"measurement": "atherosclerotic lesion formation (in words)", "setting": "[1]", "result": "still nearly completely prevented"}, {"measurement": "Mean plasma cholesterol exposure", "setting": "[2]; [4]", "result": "11.2 ± 1.5", "unit": "mmol/L/day"}, {"measurement": "Mean plasma cholesterol exposure", "setting": "[2]; [5]", "result": "9.0 ± 1.3", "unit": "mmol/L/day"}, {"measurement": "plasma cholesterol levels (in words)", "setting": "[2]; [6]", "result": "strongly reduced the plasma cholesterol levels"}, {"measurement": "Mean plasma cholesterol exposure", "setting": "[2]; [7]", "result": "20.7 ± 1.5", "unit": "mmol/L/day"}, {"measurement": "Mean plasma cholesterol exposure", "setting": "[2]; [8]", "result": "12.8 ± 1.2", "unit": "mmol/L/day"}, {"measurement": "Advanced lesions in carotid artery: intimal surface", "setting": "[3]; [4]", "result": "0.13 ± 0.03 * mm^2"}, {"measurement": "Advanced lesions in carotid artery: intimal surface", "setting": "[3]; [5]", "result": "0.14 ± 0.02 * mm^2"}, {"measurement": "Histology of the lesions", "setting": "[3]; Example 2, carotid artery, placebo on cholesterol diet: smooth muscle cells and foam cells", "result": "the lesions consisted only of smooth muscle cells"}, {"measurement": "advanced lesion formation following mechanical de-endothelisation (in words)", "setting": "[3]; [6]", "result": "strongly inhibited the formation of advanced lesions"}, {"measurement": "Advanced lesions in carotid artery: intimal surface", "setting": "[3]; [7]", "result": "0.24 ± 0.05", "unit": "mm^2"}, {"measurement": "Advanced lesions in carotid artery: intimal surface", "setting": "[3]; [8]", "result": "0.14 ± 0.01 * mm^2"}]}]}
